Test results taken from patent US20220226342A1, “COMPOSITIONS AND METHODS OF TREATING LIVER CANCERS” (The Johns Hopkins University, priority 2019, published 2022).

Tests used:
26-3 PDX [1] = test: Cleaved Caspase 3 staining of PDX tumor frozen sections; type: in vivo, NSG mice; settings: omacetaxine treated HCC PDX tumors vs matched controls
Excerpt: (§1) FIG. 8A-8G. Omacetaxine inhibits tumor cell proliferation and increases apoptosis and suppressed HCC oncoprotein expression in vivo. (8A-8D) Immunofluorescent staining of Ki67 and cleaved caspase 3 expression in 26-3 PDX model. 8A-8B show the IF staining pictures, 8C-8D show the relative Ki67 or cleaved caspase 3 positive cell number in omacetaxine treated mice compared with control treatment groups. (8E-8G) Omacetaxine suppressed HCC oncoprotein: c-Myc, Beta-catenin and MET protein expression in 50 HCC PDX treated with Omacetaxine vs control.
(§2) To verify the mechanism of omacetaxine target HCC mechanism in vivo, omacetaxine treated HCC PDX tumors, as well as matched controls, were harvested, and frozen section slides were made. […] The difference in apoptosis as well as proliferation was statistically significant (FIGS. 8C and 8D).

40 HCC PDO lines = test: 10 μM drug screening, cell viability at 96 h (CellTiter-Glo); type: cell-based, human
Description: FIG. 2A-2E. 10 μM drug screening and IC50 calculation across 40 PDOs from 20 HCC patients. (2A). 10 μM drug screening of omacetaxine and sorafenib, regorafenib, lenvatinib and cabozantinib on 40 PDOs derived from 20 HCC patients. X axis—the 40 PDO lines, Y axis—Cell viability. (2B). IC50 curve of 40 PDO lines, x-axis—omacetaxine dose, Y axis—Relative cell viability. (2C). […] (2D). IC50 distribution of 40 HCC PDOs. X axis—PDO lines, Y axis—IC50 number of omacetaxine for each PDO.
As readout of drug effectiveness, cell viability at 96 hours (h) was measured. White light microscopy images of one of the HCC PDO lines across 129 drugs was prepared. In FIG. 2E, each panel represents the image collected at 96 hours after treatment with each drug, at a concentration of 10 μM. […] To quantify survival, we implemented CellTiter-Glo, a luminescent cell viability assay. A total of 129 readings (one for each drug) was obtained for each of the 40 PDO lines, for a total of […] data points. […] Next, the inventors contrasted the survival of the […] HCC PDO lines when treated with omacetaxine versus current FDA approved drugs for HCC.

6 HCC PDO lines [2] = test: cell cycle analysis; type: cell-based, human
Description: FIG. 6A-6B. Cell cycle analysis of omacetaxine treated HCC PDOs. […] (6A) The histogram of cell cycle distributions.
(§3) The effects on proliferation were assessed to elucidate the omacetaxine mechanisms of action. […] To further understand the effects of omacetaxine on cancer cell proliferation and cell cycle, the inventors performed FACS analysis of Ki67 protein. Ki-67 is a nuclear protein expressed in proliferating cells (in all phases of the cell cycle except G0)^22,23. Furthermore, the higher expression of Ki67 has been linked to poorer disease free survival and overall survival in HCC^24. […] As caspase 3 is a key molecule in apoptosis, the inventors measured its activated (cleaved) fragment.

[3] = FDA approved dosage, cited from earlier work
HCC 40 = test: IC50 in PDO line; type: cell-based; settings: Homo sapiens
Description: (§4) The inventors tested omacetaxine at decreasing concentrations (10 μM, 1 μM, 100 nM, 10 nM and 1 nM) to calculate the half-maximal inhibitory concentration (IC50). […] The IC50 value for each of the 40 HCC PDO lines can be found in Table 2.

HCC 26-7 = test: IC50 in PDO line; type: cell-based; settings: Homo sapiens
Description: as §4

HCC 67-2 = test: IC50 in PDO line; type: cell-based; settings: Homo sapiens
Description: as §4

HCC 80-4 = test: IC50 in PDO line; type: cell-based; settings: Homo sapiens
Description: as §4

HCC 26-4 = test: IC50 in PDO line; type: cell-based; settings: Homo sapiens
Description: as §4

HCC 71-4 = test: IC50 in PDO line; type: cell-based; settings: Homo sapiens
Description: as §4

HCC 26-3 = test: IC50 in PDO line; type: cell-based; settings: Homo sapiens
Description: as §4

HCC 26-6 = test: IC50 in PDO line; type: cell-based; settings: Homo sapiens
Description: as §4

HCC 80-2 = test: IC50 in PDO line; type: cell-based; settings: Homo sapiens
Description: as §4

HCC 65-3 = test: IC50 in PDO line; type: cell-based; settings: Homo sapiens
Description: as §4

HCC 24 = test: IC50 in PDO line; type: cell-based; settings: Homo sapiens
Description: as §4

HCC 26-8 = test: IC50 in PDO line; type: cell-based; settings: Homo sapiens
Description: as §4

26-3 PDX [4] = test: Ki67 immunofluorescent staining of PDX tumor frozen sections; type: in vivo, NSG mice; settings: omacetaxine treated HCC PDX tumors vs matched controls
Excerpt: as §1, §2

6 HCC PDO lines [5] = test: Annexin V / 7AAD flow cytometry apoptosis assay; type: cell-based, human; settings: 700 μM, 350 μM, 96 h
Description: as §3, with “FIG. 5A-5E. Apoptosis analysis of HCC PDOs treated with omacetaxine in vitro. Organoids were plate on 24 well plate, omacetaxine at 700 μM, 350 μM were added to cell culture medium for 96 h. Then cells were collected and subjected to the analysis below. (5A and 5C). […] (5B and 5D). Flow cytometry analysis of cleaved caspase 3 expression of omacetaxine treated HCC PDOs. […] The” for “The”

MET = test: oncoprotein staining of HCC PDX tumor frozen sections; type: in vivo, human; settings: HCC PDX tumor (50 HCC PDX) vs control
Excerpt: as §1
(§5) Tumor masses from HCC PDX mice treated with omacetaxine and negative control, respectively, were utilized to prepare frozen sections, which were then stained for the c-Myc, MET and beta-catenin.

beta-catenin = test: as above; type: in vivo, human; settings: HCC PDX tumor (50 HCC PDX) vs control
Excerpt: as §1, §5

c-Myc = test: as above; type: in vivo, human; settings: HCC PDX tumor (50 HCC PDX) vs control
Excerpt: as §1, §5

In the case of `COC(=O)C[C@](O)(CCCC(C)(C)O)C(=O)O[C@@H]1C(OC)=C[C@]23CCCN2CCc2cc4c(cc2[C@H]13)OCO4` [omacetaxine, omacetaxine mepusuccinate], the “apoptosis as quantified by Cleaved Caspase 3 staining” value (26-3 PDX [1]) is reported as “increased”, the “survival of HCC PDO lines versus FDA approved HCC drugs (sorafenib, lenvatinib, regorafenib, cabozantinib)” value (40 HCC PDO lines) is reported as “significantly more effective than first line HCC drugs (sorafenib and lenvatinib) and second line HCC drugs (regorafenib and cabozantinib” and the “effectiveness in screen (growth inhibited by ≥50%)” value (40 HCC PDO lines; 96 h) is reported as “effective across all 40 HCC PDO lines”. The “average HCC PDO survival” value (40 HCC PDO lines; 96 h, across all 40 HCC PDO lines) was 4.2%, the cell cycle arrest (6 HCC PDO lines [2]; 6 HCC PDOs, dose-dependent) was “induces G0/G1 arrest” and the “G0/G1 fraction with rising omacetaxine dose” value (6 HCC PDO lines [2]; all 6 HCC PDOs) was “around 90%”. For the same molecule, the “infectious complications, share of patients” value [3] was “approximately 5%”, the main side effects ([3]; patients) was “hematologic depletion (thrombocytopenia, anemia, and neutropenia) and diarrhea” and the IC50 (HCC 40) was 15.8 nM. The IC50 (HCC 26-7) was 1.41 nM, the IC50 (HCC 67-2) was 12.8 nM and the IC50 (HCC 80-4) was 3.18 nM. For the same molecule, the IC50 (HCC 26-4) was 33.5 nM, the IC50 (HCC 71-4) was 9.98 nM and the IC50 (HCC 26-3) was 27.8 nM. The IC50 (HCC 26-6) was 80.8 nM, the IC50 (HCC 80-2) was 44 nM and the IC50 (HCC 65-3) was 2.26 nM. The IC50 (HCC 24) was 148 nM, the IC50 (HCC 26-8) was 37.8 nM and the “proliferation as measured by Ki67 protein expression” value (26-3 PDX [4]) was “less”. For the same molecule, the “early / late apoptosis (Annexin V, 7AAD)” value (6 HCC PDO lines [5]) was “either early apoptosis, or late apoptosis, or both were increased”, the “MET expression in vivo” value (MET) was “downregulated” and the “beta-catenin expression in vivo” value (beta-catenin) was “downregulated”. The “c-Myc expression in vivo” value (c-Myc) was “downregulated”.
